Experimental data published in ChEMBL document CHEMBL1142909, “Synthesis and insecticidal activity of chromanone and chromone analogues of diacylhydrazines” (2007).

Legend:
Type in all cases: functional
Tetranychus cinnabarinus = assay: Insecticidal activity against Tetranychus cinnabarinus at 250 mg/L relative to control
Aphis = assay: Insecticidal activity against Aphis medicagini at 250 mg/L relative to control
Nilaparvata lugens = assay: Insecticidal activity against Nilaparvata lugens at 500 mg/L relative to control
Mythimna separata = assay: Insecticidal activity against Mythimna separata at 500 mg/L relative to control

| Compound | Activity (Tetranychus cinnabarinus) | Activity (Aphis) | Activity (Nilaparvata lugens) | Activity (Mythimna separata) |
| --- | --- | --- | --- | --- |
| Cc1cccc(C(=O)NN(C(=O)c2coc3ccc(Cl)cc3c2=O)C(C)(C)C)c1 | 0% | 6% | 7.1% | 26.7% |
| CC1(C)CC(=O)c2cc(C(=O)NN(C(=O)c3ccccc3)C(C)(C)C)ccc2O1 | 0% | 8% | 0% | 80% |
| CC(C)(C)N(NC(=O)c1cccc(Cl)c1)C(=O)c1coc2ccccc2c1=O | 0% | 4% | 0% | 20% |
| Cc1ccc2occ(C(=O)N(NC(=O)c3cccc(Cl)c3)C(C)(C)C)c(=O)c2c1 | 0% | 0% | 3.4% | 26.7% |
| CC1(C)CC(=O)c2cc(C(=O)NN(C(=O)c3ccccc3F)C(C)(C)C)ccc2O1 | 76.7% | 4% | 3.4% | 0% |
| CC(C)(C)N(NC(=O)c1ccc(Cl)cc1)C(=O)c1coc2ccccc2c1=O | 0% | 2% | 0% | 66.7% |
| Cc1cc(C)cc(C(=O)N(NC(=O)c2ccc3c(c2)C(=O)CC(C)(C)O3)C(C)(C)C)c1 | 66.7% | 8% | 7.1% | 100% |
| CC1(C)CC(=O)c2cc(C(=O)NN(C(=O)c3ccc(F)cc3)C(C)(C)C)ccc2O1 | 0% | 4% | 0% | 0% |
| CC1(C)CC(=O)c2cc(C(=O)NN(C(=O)c3ccc(Cl)cc3)C(C)(C)C)ccc2O1 | 0% | 4.2% | 0% | 84.2% |
| Cc1ccccc1C(=O)N(NC(=O)c1ccc2c(c1)C(=O)CC(C)(C)O2)C(C)(C)C | 0% | 0% | 3.4% | 40% |
| Cc1ccc2occ(C(=O)N(NC(=O)c3ccccc3)C(C)(C)C)c(=O)c2c1 | 51.7% | 0% | 0% | 60% |
| CC1(C)CC(=O)c2cc(C(=O)NN(C(=O)c3cccc(Cl)c3)C(C)(C)C)ccc2O1 | 0% | 0% | 0% | 13.3% |
| CC1(C)CC(=O)c2cc(C(=O)NN(C(=O)c3ccccc3Cl)C(C)(C)C)ccc2O1 | 58.3% | 8% | 0% | 66.7% |
| CC(C)(C)N(NC(=O)c1cccc(Cl)c1)C(=O)c1coc2ccc(Cl)cc2c1=O | 0% | 16% | 0% | 73.3% |
| CC(C)(C)N(NC(=O)c1ccccc1)C(=O)c1coc2ccccc2c1=O | 0% | 21.1% | 7.1% | 0% |
| CC1(C)CC(=O)c2cc(C(=O)NN(C(=O)c3ccc(Br)cc3)C(C)(C)C)ccc2O1 | 0% | 4% | 0% | 6.7% |
| CC(C)(C)N(NC(=O)c1ccccc1)C(=O)c1coc2ccc(Cl)cc2c1=O | 0% | 0% | 18.2% | 58.3% |
